3 molecules from the NIST ThermoML archive (doi:10.1021/acs.jced.7b00996) can be followed below.

Numbers after ± are expanded uncertainties.

For one data set the following is noted: 288.15 K; 100 kPa; Liquid; Capillary tube (Ostwald / Ubbelohde) method.
On to `CCCCCO` [pentan-1-ol], for which the viscosity was determined as 4.7 ± 0.097 mPa·s.

With `CCC(C)CO` (stereo unspecified) [2-methyl-1-butanol], the viscosity came to 6.451 ± 0.13 mPa·s.

On to `CCCC(C)O` (stereo unspecified) [pentan-2-ol], for which the viscosity is on record as 5.063 ± 0.11 mPa·s.

The same data set, now with this note: 288.15 K; 100 kPa; Liquid; Vibrating tube method.
As for `CCCCCO` [pentan-1-ol], the mass density is listed as 818.59 ± 0.61 kg/m3.

Turning to `CCC(C)CO` (stereo unspecified) [2-methyl-1-butanol], the mass density worked out at 823.02 ± 0.61 kg/m3.

With `CCCC(C)O` (stereo unspecified) [pentan-2-ol], the mass density was 813.55 ± 0.61 kg/m3.

Staying with this data set, now noted: 293.15 K; 100 kPa; Liquid; Capillary tube (Ostwald / Ubbelohde) method.
For the molecule `CCCCCO` [pentan-1-ol], the viscosity was 4.045 ± 0.084 mPa·s.

With `CCC(C)CO` (stereo unspecified) [2-methyl-1-butanol], the viscosity was determined as 5.285 ± 0.11 mPa·s.

`CCCC(C)O` (stereo unspecified) [pentan-2-ol]: the viscosity amounted to 4.172 ± 0.087 mPa·s.

The same data set, now with this note: 293.15 K; 100 kPa; Liquid; Vibrating tube method.
As for `CCCCCO` [pentan-1-ol], the mass density was 814.89 ± 0.61 kg/m3.

For `CCC(C)CO` (stereo unspecified) [2-methyl-1-butanol], the mass density is reported as 819.56 ± 0.61 kg/m3.

Turning to `CCCC(C)O` (stereo unspecified) [pentan-2-ol], the mass density came to 809.59 ± 0.61 kg/m3.

The data set is the same for the next values; noted with them: 298.15 K; 100 kPa; Liquid; Capillary tube (Ostwald / Ubbelohde) method.
For `CCCCCO` [pentan-1-ol], the viscosity is listed as 3.49 ± 0.072 mPa·s.

As to `CCC(C)CO` (stereo unspecified) [2-methyl-1-butanol], the viscosity was determined as 4.492 ± 0.093 mPa·s.

Consider `CCCC(C)O` (stereo unspecified) [pentan-2-ol], for which the viscosity is on record as 3.412 ± 0.071 mPa·s.

The data set is the same for the next values; noted with them: 298.15 K; 100 kPa; Liquid; Vibrating tube method.
As to `CCCCCO` [pentan-1-ol], the mass density is 811.23 ± 0.61 kg/m3.

For the molecule `CCC(C)CO` (stereo unspecified) [2-methyl-1-butanol], the mass density was found to be 815.82 ± 0.61 kg/m3.

With `CCCC(C)O` (stereo unspecified) [pentan-2-ol], the mass density is listed as 805.55 ± 0.61 kg/m3.

Still in this data set, the particulars now being: 303.15 K; 100 kPa; Liquid; Capillary tube (Ostwald / Ubbelohde) method.
On to `CCCCCO` [pentan-1-ol], for which the viscosity is on record as 3.034 ± 0.063 mPa·s.

With `CCC(C)CO` (stereo unspecified) [2-methyl-1-butanol], the viscosity is given as 3.813 ± 0.079 mPa·s.

`CCCC(C)O` (stereo unspecified) [pentan-2-ol]: the viscosity is given as 2.825 ± 0.059 mPa·s.

Staying with this data set, now noted: 303.15 K; 100 kPa; Liquid; Vibrating tube method.
Consider `CCCCCO` [pentan-1-ol], for which the mass density is 807.55 ± 0.61 kg/m3.

In the case of `CCC(C)CO` (stereo unspecified) [2-methyl-1-butanol], the mass density is recorded as 812.03 ± 0.61 kg/m3.

As for `CCCC(C)O` (stereo unspecified) [pentan-2-ol], the mass density is listed as 801.44 ± 0.61 kg/m3.

The same data set, now with this note: 308.15 K; 100 kPa; Liquid; Capillary tube (Ostwald / Ubbelohde) method.
Take `CCCCCO` [pentan-1-ol]: the viscosity is recorded as 2.674 ± 0.055 mPa·s.

As for `CCC(C)CO` (stereo unspecified) [2-methyl-1-butanol], the viscosity was determined as 3.258 ± 0.068 mPa·s.

As to `CCCC(C)O` (stereo unspecified) [pentan-2-ol], the viscosity is 2.34 ± 0.049 mPa·s.

Still in this data set, the particulars now being: 308.15 K; 100 kPa; Liquid; Vibrating tube method.
As for `CCCCCO` [pentan-1-ol], the mass density is given as 803.83 ± 0.61 kg/m3.

Turning to `CCC(C)CO` (stereo unspecified) [2-methyl-1-butanol], the mass density was 808.2 ± 0.61 kg/m3.

For `CCCC(C)O` (stereo unspecified) [pentan-2-ol], the mass density was determined as 797.25 ± 0.61 kg/m3.

The data set is the same for the next values; noted with them: 313.15 K; 100 kPa; Liquid; Capillary tube (Ostwald / Ubbelohde) method.
For the molecule `CCCCCO` [pentan-1-ol], the viscosity stood at 2.356 ± 0.049 mPa·s.

Turning to `CCC(C)CO` (stereo unspecified) [2-methyl-1-butanol], the viscosity stood at 2.777 ± 0.058 mPa·s.

For the molecule `CCCC(C)O` (stereo unspecified) [pentan-2-ol], the viscosity came to 1.993 ± 0.041 mPa·s.

The same data set, now with this note: 313.15 K; 100 kPa; Liquid; Vibrating tube method.
With `CCCCCO` [pentan-1-ol], the mass density worked out at 800.08 ± 0.61 kg/m3.

As to `CCC(C)CO` (stereo unspecified) [2-methyl-1-butanol], the mass density turned out to be 804.33 ± 0.61 kg/m3.

In the case of `CCCC(C)O` (stereo unspecified) [pentan-2-ol], the mass density is 792.98 ± 0.61 kg/m3.

Still in this data set, the particulars now being: 318.15 K; 100 kPa; Liquid; Capillary tube (Ostwald / Ubbelohde) method.
Consider `CCCCCO` [pentan-1-ol], for which the viscosity is reported as 2.052 ± 0.043 mPa·s.

For the molecule `CCC(C)CO` (stereo unspecified) [2-methyl-1-butanol], the viscosity is 2.375 ± 0.049 mPa·s.

As to `CCCC(C)O` (stereo unspecified) [pentan-2-ol], the viscosity came out at 1.704 ± 0.035 mPa·s.

The data set is the same for the next values; noted with them: 318.15 K; 100 kPa; Liquid; Vibrating tube method.
With `CCCCCO` [pentan-1-ol], the mass density came out at 796.29 ± 0.61 kg/m3.

As to `CCC(C)CO` (stereo unspecified) [2-methyl-1-butanol], the mass density is 800.39 ± 0.61 kg/m3.

As to `CCCC(C)O` (stereo unspecified) [pentan-2-ol], the mass density worked out at 788.63 ± 0.61 kg/m3.

Staying with this data set, now noted: 323.15 K; 100 kPa; Liquid; Capillary tube (Ostwald / Ubbelohde) method.
On to `CCCCCO` [pentan-1-ol], for which the viscosity is on record as 1.811 ± 0.038 mPa·s.

As to `CCC(C)CO` (stereo unspecified) [2-methyl-1-butanol], the viscosity was 2.057 ± 0.043 mPa·s.

With `CCCC(C)O` (stereo unspecified) [pentan-2-ol], the viscosity was 1.475 ± 0.031 mPa·s.

The data set is the same for the next values; noted with them: 323.15 K; 100 kPa; Liquid; Vibrating tube method.
Consider `CCCCCO` [pentan-1-ol], for which the mass density is on record as 792.46 ± 0.61 kg/m3.

With `CCC(C)CO` (stereo unspecified) [2-methyl-1-butanol], the mass density worked out at 796.39 ± 0.61 kg/m3.

Regarding `CCCC(C)O` (stereo unspecified) [pentan-2-ol], the mass density stood at 784.19 ± 0.61 kg/m3.

The same data set, now with this note: 328.15 K; 100 kPa; Liquid; Capillary tube (Ostwald / Ubbelohde) method.
For the molecule `CCCCCO` [pentan-1-ol], the viscosity was determined as 1.609 ± 0.033 mPa·s.

With `CCC(C)CO` (stereo unspecified) [2-methyl-1-butanol], the viscosity is on record as 1.791 ± 0.037 mPa·s.

Take `CCCC(C)O` (stereo unspecified) [pentan-2-ol]: the viscosity was 1.303 ± 0.027 mPa·s.

Staying with this data set, now noted: 328.15 K; 100 kPa; Liquid; Vibrating tube method.
Regarding `CCCCCO` [pentan-1-ol], the mass density stood at 788.56 ± 0.61 kg/m3.

Take `CCC(C)CO` (stereo unspecified) [2-methyl-1-butanol]: the mass density came out at 792.34 ± 0.61 kg/m3.

For the molecule `CCCC(C)O` (stereo unspecified) [pentan-2-ol], the mass density turned out to be 779.67 ± 0.61 kg/m3.

Still in this data set, the particulars now being: 333.15 K; 100 kPa; Liquid; Capillary tube (Ostwald / Ubbelohde) method.
As for `CCCCCO` [pentan-1-ol], the viscosity was 1.433 ± 0.03 mPa·s.

Consider `CCC(C)CO` (stereo unspecified) [2-methyl-1-butanol], for which the viscosity is given as 1.573 ± 0.033 mPa·s.

Turning to `CCCC(C)O` (stereo unspecified) [pentan-2-ol], the viscosity amounted to 1.135 ± 0.024 mPa·s.

The same data set, now with this note: 333.15 K; 100 kPa; Liquid; Vibrating tube method.
Consider `CCCCCO` [pentan-1-ol], for which the mass density was 784.66 ± 0.61 kg/m3.

For the molecule `CCC(C)CO` (stereo unspecified) [2-methyl-1-butanol], the mass density came to 788.2 ± 0.61 kg/m3.

For `CCCC(C)O` (stereo unspecified) [pentan-2-ol], the mass density turned out to be 775.07 ± 0.61 kg/m3.

The same data set, now with this note: 338.15 K; 100 kPa; Liquid; Capillary tube (Ostwald / Ubbelohde) method.
For the molecule `CCCCCO` [pentan-1-ol], the viscosity was found to be 1.284 ± 0.027 mPa·s.

With `CCC(C)CO` (stereo unspecified) [2-methyl-1-butanol], the viscosity turned out to be 1.377 ± 0.029 mPa·s.

Turning to `CCCC(C)O` (stereo unspecified) [pentan-2-ol], the viscosity is 1.012 ± 0.021 mPa·s.

The data set is the same for the next values; noted with them: 338.15 K; 100 kPa; Liquid; Vibrating tube method.
In the case of `CCCCCO` [pentan-1-ol], the mass density was found to be 780.7 ± 0.61 kg/m3.

On to `CCC(C)CO` (stereo unspecified) [2-methyl-1-butanol], for which the mass density is listed as 783.84 ± 0.61 kg/m3.

As for `CCCC(C)O` (stereo unspecified) [pentan-2-ol], the mass density turned out to be 770.37 ± 0.61 kg/m3.
